Assays:
glycogen phosphorylase a = experiment: Removal of AMP by the cleaning reactions (glycogen phosphorylase a activity, NADPH fluorescence); type: biochemical; details: 25° C.
Description: AMP was incubated for 60 min at 37° C. with 50 μl of either buffer (100 mM Tris-HCl, pH 8.0) or a cleaning reaction mixture containing 100 mM Tris-HCl, pH 8.0; 5 mM MgCl2. 2 mM CaCl2, 0.02 units/ml apyrase; 0.025 units/ml 5'-nucleotidase and 0.1 mg/ml adenosine deaminase.

adenylate cyclase [1] = experiment: Fluorometric (non-radioactive) adenylate cyclase assay, rabbit ventricular membranes; type: biochemical, rabbit (New Zealand white); details: NaF 10^-2 M; for Agonist-stimulated adenylate cyclase activity, fluorescent assay: Iso 10^-6 M, GppNHp 10^-4 M, n = 5; for stimulated activity, reduced assay volume: membrane suspension reduced from 25 μl to 5 μl, isoproterenol 10^-6 M
Description: (§1) Ventricular membrane preparations were prepared from five male New Zealand white rabbits (weight 2.4 kg; W.O.R.K., Philomith, Oreg.) sacrificed by cervical concussion and immediate incision of the heart as previously described. Briefly, hearts were placed in ice-cold SET buffer (0.25M sucrose, 0.1 mM EDTA, 5.0 mM Tris HCl, pH 7.4). Portions (1-2 g) from the ventricular apex were minced and then homogenized in ice-cold SET buffer (1/10, w/v). The homogenate was filtered through a Nitex filter (three layers) (Tetko, Los Angeles, Calif.) and then centrifuged for 20 min. at 1000×g. The pellet was resuspended and centrifuged three more times. The final pellet was resuspended in SET buffer (1.5 mg protein/ml) and stored at -70° C. until enzyme activity was measured.
A volume of 1.0 μl of either H2 O, NaF, guanylyl -5'-imidodiphosphate (GppNHp), isoproterenol, or isoproterenol+GppNHp was added to each of five reaction tubes and maintained at 0° C. Next, 25 μl of reaction mixture B (tris Acetate 100 mM, pH 7.4; KCl 20 mM; MgCl2 10.0 mM; phosphoenolpyruvate 20 mM; ATP 2.0 mM; GTP 0.02 mM; dithiothreitol 2.0 mM; bovine serum albumin 0.04%; theophylline 0.2 mM; pyruvate kinase 1.0 mg/ml) were added to each reaction tube. Finally, 25 μl of membrane suspension (40 to 45 μg protein) were added to each tube and the reaction was initiated by placing the tubes in a water bath at 37° C. After 30 minutes at 37° C., the reaction was stopped by the addition of 50 μl of 50 mM NaOH. The reaction mixture was heated for 5 minutes at 95° C.
1. A volume of 20-40 μl of reaction product from Part A was added to 100 μl of cleaning reaction mix (Tris-HCl 50 mM, pH 8.0; MgCl2 5 mM; CaCl2, 2 mM; 5'-nucleotidase 0.025 units/ml; apyrase 0.02 units/ml; adenosine deaminase 0.1 mg/ml). After 30 minutes at 37° C., the reaction was terminated by heating it at 95° C. for 5 minutes.
2. […] After 60 minutes at 37° C., 600 μl of 2-amino-2-methyl-1-propanol (AMP2) 50 mM, pH 9.9 was added to the reaction mix and the final concentration of NADPH was measured fluorometrically.
Although the basal activity is nearly 3 times higher in the nonradioactive method, the "fold" stimulation is similar for both receptor-mediated agonists (isoproterenol±GppNHp) as well by NaF, which directly stimulates adenylate cyclase.
The non-radioactive assay of Example 2 is at least 5 times more sensitive than the modified Salomon radioactive assay of Example 1. In Table 3, 5 μl of membrane preparation were used to measure adenylate cyclase activity in the non-radioactivity assay compared to 25 μl with the radioactive preparations. In a separate experiment, the volume of membrane suspension was reduced from 25 μl to 5 μl. By proportionally reducing the assay volume size, no difference in basal (58.4±3.9), isoproterenol (10^-6 M) (128±7.6) or NaF (10^-2 M) (331.9±42.8) stimulated activity was observed when results were compared to larger assay volumes present. EXAMPLE 5.

adenylate cyclase [2] = experiment: Radioactive adenylate cyclase assay (modified Salomon, alpha-32P-ATP), rabbit ventricular membranes; type: biochemical, rabbit (New Zealand white); details: Iso 10^-6 M; GppNHp 10^-4 M; NaF 10^-2 M; n = 5
Description: as §1
A volume of 1.0 μl of either H2 O, NaF, guanylyl-5'-imidodiphosphate (GppNHp), isoproterenol, or isoproterenol+GppNHp were added to each of five reaction tubes and maintained at 0° C. […] Finally 25 μl of membrane suspension ([…]) were added to each tube and the reaction was initiated by placing the tubes in a water bath at 37° C. After 30 minutes, the reaction was terminated by the addition of 300 μl of a stopping solution which contained 0.34 HCl and ^3 H-cAMP, 10,000-20,000 cpm.
To generate the graph depicted in FIG. 2, 250 μl portions of reaction mixture A and membrane were used and 50 μl samples were removed from the 37° C. bath every 10 minutes, and stopped with 300 μl stopping solution. The assay tubes were heated at 95° C. for 5 minutes. ^32 P-cAMP was isolated using Dowex-alumina chromatography. Recovery, as assessed by ^3 H-cAMP, was 80-95%. All assays were conducted in triplicate. The time course of adenylate cyclase activity (n=5 different rabbit ventricular membrane preparations) is depicted in FIG. 1. Basal AC and agonist stimulated (0.1 mM GppNHp, 0.1 mM) AC are compared. The activity shown is (isoproterenol+GppNHp-stimulated AC activity) minus (GppNHp-stimulated activity). […]

adenylate cyclase [3] = experiment: Adenylate cyclase activity of rabbit cardiac membranes by enzymatic fluorometric assay (ATP-ADP cycling), radioimmunoassay and Salomon's method; type: biochemical; details: isoproterenol 10^-7 and 10^-6 M; NaF 10^-2 M; GppNHp 10^-4 M; carbachol 10^-6 M; adenosine 10^-3 M; three methods
Description: Adenylate cyclase activities of six different rabbit cardiac membranes under basal and drug treated conditions were assessed using the fluorometric method of the present invention, radioimmunoassay and original [alpha-^32 P] ATP method developed by Salomon. The first part of the non-radioactive fluorescent technique for measuring adenylate cyclase activity is similar to the method described in Example 2 except that 3-isobutyl-1-methylxanthine (IBMX), rather than theophylline, was used to inhibit phosphodiesterase activity. Furthermore, a series of ATP-ADP enzyme-cycling reactions was used to amplify the cAMP signal, rather then the AMP stimulation of glycogen phosphorylase a utilized in previous examples. Use of the ATP-ADP enzymatic cycling amplification step can lengthen the assay duration, depending upon the desired assay sensitivity.
A volume of 1.0 μl of either H2 O, isoproterenol, NaF, guanylyl-5'-imidodiphosphate (GppNHp), carbachol, and adenosine was added to each of six reaction tubes on ice. Next, 25 μl of cyclase mix (100 mM Tris-acetate, pH 7.4; 4.2 mM KCl; 10 mM MgCl2; 20 mM phosphoenolpyruvate; 2 mM ATP; 20 μM GTP; 2 mM dithiothreitol; 0.04% bovine serum albumin; 0.2 mM 3-isobutyl-1-methylxanthine (IBMX); 100 μg/ml pyruvate kinase) was added to each reaction tube. The stored membrane was diluted with SET buffer in a concentration of 1.5 mg of protein/ml. Finally, 25 μl of membrane suspension, which contained 37.5 μg of protein, was added to each tube, and the reaction was initiated by placing the tubes in a water bath maintained at 37° C. After 30 minutes, the reaction was terminated by heating at 90° C. for 5 minutes. […] Then, 25 μl of cyclase mix and 25 μl of boiled membrane preparation were added to each tube. After 30 minutes, the reaction was terminated by heating at 90° C. for 5 minutes.
A volume of 5 μl of reaction of product from Part A was transferred to Pyrex® tubes. For external cAMP standard, a same volume of known amount of cAMP was also added to assay tubes. Newly synthesized cAMP was measured using the following enzymatic fluorometric assay.
1. A volume of 25 μl of "cleaning" reaction mix (100 mM Tris HCl, pH 8.0; 2 mM MgCl2; 2 units/ml apyrase; 2.5 units/ml 5'-nucleotidase; 50 μg/ml adenosine deaminase; 20 units/ml alkaline phosphatase) was added to each assay tube. The mixture was incubated at 37° C. for 30 minutes. Enzymes were then destroyed by heating for 10 minutes at 90° C.
2. A volume of 25 μl of a phosphodiesterase-containing reaction mix (100 mM Tris-HCl pH 8.0; 2 mM MgCl2; 0.01% bovine serum albumin; 60 μg/m; phosphodiesterase) was added to each assay tube from Step 1. After 60 minutes at 37° C., the assay tubes were heated at 90° C. for 5 minutes.
3. A volume of 25 μl of myokinase reaction mix (100 mM Tris-HCl, pH 8.0; 2 mM MgCl2; 225 mM KCl; 200 nM ATP; 8 mM phosphoenolpyruvate; 2 mM dithiothreitol; 0.01% bovine serum albumin; 24 μg/ml myokinase; 50 μg/ml pyruvate kinase) was added to the assay tubes from Step 2. The reactions were incubated at 37° C. for 2 hours.
4. […]
5. […] After 15 minutes at room temperature, the final concentration of NADPH was measured using a fluorometer (Optical Technology Devices, Inc., New York). The fluorometer was set such that a reading of 1 fluorometric unit was equivalent to 100 pmol of NADPH in 900 μl of buffer (50 mM Tris-HCl, pH 8.0). […]

adenylate cyclase [4] = experiment: Effect of theophylline on basal and isoproterenol-stimulated adenylate cyclase activity; type: biochemical; details: for Isoproterenol Stimulated adenylate cyclase activity / Fold Increase, isoproterenol stimulated: isoproterenol 10^-6 M; for Isoproterenol Stimulated adenylate cyclase activity / Basal (no isoproterenol) adenylate cyclase activity: n = 5; for Fold Increase, isoproterenol stimulated / Fold Increase, basal (no isoproterenol): vs control
Source text: To investigate the effects of theophylline on basal adenylate cyclase activity, increasing concentrations of theophylline were studied (Table 2).

With “adenosine 2'- and 3'-monophosphate [AMP]” the “glycogen phosphorylase a activity” value (glycogen phosphorylase a; in the presence of the cleaning reaction mixture) was “remains similar to the control buffer values” and the “glycogen phosphorylase a activity” value (glycogen phosphorylase a; without the cleaning step) was “markedly stimulated”.
`Nc1nc2c(ncn2[C@@H]2O[C@H](COP(=O)(O)OP(=O)(O)NP(=O)(O)O)[C@@H](O)[C@H]2O)c(=O)[nH]1` [GppNHp, guanylyl-5'-imidodiphosphate] was tested, and the “Agonist-stimulated adenylate cyclase activity, fluorescent assay” value (adenylate cyclase [1]) was 185.3 ± 13.7 pmoles of cAMP/mg/min, the “Agonist-stimulated adenylate cyclase activity, radioactive assay” value (adenylate cyclase [2]) was 64.9 ± 3.3 pmoles of cAMP/mg/min and the “effect on cAMP production” value (adenylate cyclase [3]) was “increased production”.
With `CC(C)NCC(O)c1ccc(O)c(O)c1` (centres unmarked) [isoproterenol] the “Agonist-stimulated adenylate cyclase activity, fluorescent assay” value (adenylate cyclase [1]) was 110.0 ± 3.3 pmoles of cAMP/mg/min, the “stimulated activity, reduced assay volume” value (adenylate cyclase [1]) was 128±7.6 and the “Agonist-stimulated adenylate cyclase activity, radioactive assay” value (adenylate cyclase [2]) was 38.3 ± 2.3 pmoles of cAMP/mg/min. The “"fold" stimulation (agonist-stimulated activity/basal activity) of adenylate cyclase activity” value (adenylate cyclase [4]; at a given concentration of isoproterenol, in the presence of theophylline) was “constant”, the “Isoproterenol Stimulated adenylate cyclase activity” value (adenylate cyclase [4]; control (no theophylline)) was 51.73 ± 10.47 pmol/mg/min and the “effect on cAMP production” value (adenylate cyclase [3]) was “increased cAMP production, in a concentration-dependent manner”.
For `C[N+](C)(C)CCOC(N)=O` [carbachol], the “effect on cAMP production” value (adenylate cyclase [3]) was “inhibited”.
For `Nc1ncnc2c1ncn2[C@@H]1O[C@H](CO)[C@@H](O)[C@H]1O` [adenosine], the “effect on cAMP production” value (adenylate cyclase [3]) was “inhibited”.
`[F-].[Na+]` [NaF, Sodium Fluoride] was tested, and the “Agonist-stimulated adenylate cyclase activity, fluorescent assay” value (adenylate cyclase [1]) was 346.7 ± 15.9 pmoles of cAMP/mg/min, the “stimulated activity, reduced assay volume” value (adenylate cyclase [1]) was 331.9±42.8 and the “Agonist-stimulated adenylate cyclase activity, radioactive assay” value (adenylate cyclase [2]) was 106.2 ± 3.5 pmoles of cAMP/mg/min. For the same molecule, the “effect on cAMP production” value (adenylate cyclase [3]) was “increased production”.
In the case of `Cn1c(=O)c2[nH]cnc2n(C)c1=O` [theophylline], the “Isoproterenol Stimulated adenylate cyclase activity” value (adenylate cyclase [4]; theophylline 10 μM) was 85.58 ± 5.56 pmol/mg/min, the “Fold Increase, isoproterenol stimulated” value (adenylate cyclase [4]; theophylline 10 μM) was 1.65 fold and the “Basal (no isoproterenol) adenylate cyclase activity” value (adenylate cyclase [4]; theophylline 10 μM) was 44.72 ± 4.61 pmol/mg/min. For the same molecule, the “Fold Increase, basal (no isoproterenol)” value (adenylate cyclase [4]; theophylline 10 μM) was 1.46 fold, the “Isoproterenol Stimulated adenylate cyclase activity” value (adenylate cyclase [4]; theophylline 50 μM) was 93.02 ± 3.55 pmol/mg/min and the “Fold Increase, isoproterenol stimulated” value (adenylate cyclase [4]; theophylline 50 μM) was 1.80 fold. For the same molecule, the “Basal (no isoproterenol) adenylate cyclase activity” value (adenylate cyclase [4]; theophylline 50 μM) was 44.63 ± 5.93 pmol/mg/min, the “Fold Increase, basal (no isoproterenol)” value (adenylate cyclase [4]; theophylline 50 μM) was 1.46 fold and the “Isoproterenol Stimulated adenylate cyclase activity” value (adenylate cyclase [4]; theophylline 100 μM) was 104.21 ± 3.50 pmol/mg/min. For the same molecule, the “Fold Increase, isoproterenol stimulated” value (adenylate cyclase [4]; theophylline 100 μM) was 2.01 fold, the “Basal (no isoproterenol) adenylate cyclase activity” value (adenylate cyclase [4]; theophylline 100 μM) was 59.94 ± 3.63 pmol/mg/min and the “Fold Increase, basal (no isoproterenol)” value (adenylate cyclase [4]; theophylline 100 μM) was 1.91 fold. For the same molecule, the “Isoproterenol Stimulated adenylate cyclase activity” value (adenylate cyclase [4]; theophylline 500 μM) was 102.67 ± 2.86 pmol/mg/min, the “Fold Increase, isoproterenol stimulated” value (adenylate cyclase [4]; theophylline 500 μM) was 1.98 fold and the “Basal (no isoproterenol) adenylate cyclase activity” value (adenylate cyclase [4]; theophylline 500 μM) was 53.82 ± 4.37 pmol/mg/min. The “Fold Increase, basal (no isoproterenol)” value (adenylate cyclase [4]; theophylline 500 μM) was 1.75 fold, the “basal activity is increased” value (adenylate cyclase [4]; theophylline 100-500 μM) was “approximately 100%” and the “increase in basal activity” value (adenylate cyclase [4]; theophylline > 100 μM) was “no significant increase in basal activity was observed”.

Source: patent US5618665A, “Enzymatic fluorometric assay for adenylate cyclase” (Regents of the University of Minnesota, priority 1994, dated 1997)
